Assay results from patent US7989494B2, “Polymorphs of N-hydroxy-3-[4-[[[2-(2-methyl-1H-indol-3-yl)ethyl]amino]methyl]phenyl]-2E-2-propenamide” (Novartis AG, priority 2006, dated 2011).
Where a name gives a salt, the structure may show the parent alone.

Legend:
Format in all cases: physicochemical
[1] = Solubility in organic solvents
[2] = Hygroscopicity (descriptive)
[3] = Equilibration in solvents and aqueous media, solid form by XRPD
Aqueous solubility = conditions: water
Intrinsic dissolution = assay: Intrinsic dissolution
[4] = Sorption-desorption isotherms, VTI humidity balance; conditions: for Sorption: 25° C., first sorption cycle; for Desorption: in % (unit assumed)
Method: Sorption-desorption isotherms were recorded by a VTI humidity balance. The salts of (N-hydroxy-3-[4-[[[2-(2-methyl-1H-indol-3-yl)ethyl]amino]methyl]phenyl]-2E-2-propenamide were first subjected to a drying step (25° C., r.h. below 2%, 2 hours) and then to a sorption-desorption-sorption sequence, with each RH % step retained for 3 hours. The free base was kept below 2% r.h. for several hours, and thus was completely dehydrated after the drying step. Only the data of the first sorption cycle are given in the table, since, in all cases, the two sorption cycles were very similar.

Compound | hygroscopicity [2] | XRPD form after equilibration ([3]; 2-Propanol) | XRPD form after equilibration ([3]; Acetone) | XRPD form after equilibration ([3]; Ethanol) | XRPD form after equilibration ([3]; Ethyl Acetate) | XRPD form after equilibration ([3]; pH = 6.8 buffer (phosphate)) | XRPD form after equilibration ([3]; water) | aqueous solubility (Aqueous solubility) | intrinsic dissolution (Intrinsic dissolution) | Sorption ([4]; Sample RH % 1.5) | Sorption ([4]; Sample RH % 5) | Desorption ([4]; Sample RH % 5) | Sorption ([4]; Sample RH % 25) | Desorption ([4]; Sample RH % 25) | Sorption ([4]; Sample RH % 50) | Desorption ([4]; Sample RH % 50) | Sorption ([4]; Sample RH % 75) | Desorption ([4]; Sample RH % 75) | Sorption ([4]; Sample RH % 85) | Desorption ([4]; Sample RH % 85) | other results
Cc1[nH]c2ccccc2c1CCNCc1ccc(/C=C/C(=O)NO)cc1 [Form A of the L-tartarate salt, N-hydroxy-3-[4-[[[2-(2-methyl-1H-indol-3-yl)ethyl]amino]methyl]phenyl]-2E-2-propenamide] | slightly hygroscopic | No change | Form C of the tartarate salt is obtained | No change | No change | free base | No change | 3500 µg/mL | good | 0% | 0.04% | −0.09 | 0.11% | 0.03 | 0.2% | 0.16 | 0.31% | 0.36 | 0.35% | 0.42 | solubility in acetone, ethyl acetate and other common organic solvents ([1]; acetone, ethyl acetate and other common organic solvents): good solubility; solubility in alcohols ([1]; alcohols): limited solubility; XRPD form after equilibration ([3]; 0.1 N HCl): chloride salt; XRPD form after equilibration ([3]; Acetone, listed as L-Tartarate): No change; XRPD form after equilibration ([3]; Methanol): converts to form C; XRPD form after equilibration ([3]; Methanol, listed as L-Tartarate): Changed to new; moisture at 85% r.h. [4]: less than 0.5%; Sorption ([4]; Sample RH % 95): 0.49%; Desorption ([4]; Sample RH % 95): 0.49
Cc1[nH]c2ccccc2c1CCNCc1ccc(/C=C/C(=O)NO)cc1 [Form A of the maleate salt, N-hydroxy-3-[4-[[[2-(2-methyl-1H-indol-3-yl)ethyl]amino]methyl]phenyl]-2E-2-propenamide] | nonhygroscopic | No change | No change | No change | No change | No change | No change | 2600 µg/mL | good | 0% | 0.02% | −0.02 | 0.07% | 0.05 | 0.12% | 0.10 | 0.16% | 0.17 | 0.17% | 0.19 | solubility in methanol and ethanol [1]: high solubility; solubility in other common / remaining organic solvents [1]: considerable solubility; XRPD form after equilibration ([3]; Methanol): No change; Sorption ([4]; Sample RH % 95): 0.21%; Desorption ([4]; Sample RH % 95): 0.21
Cc1[nH]c2ccccc2c1CCNCc1ccc(/C=C/C(=O)NO)cc1 [Form A of the mesylate salt, N-hydroxy-3-[4-[[[2-(2-methyl-1H-indol-3-yl)ethyl]amino]methyl]phenyl]-2E-2-propenamide] | very slightly hygroscopic | No change | No change | No change | No change | free base | converts to form B | 12900 µg/mL | high | 0% | 0.03% | −0.03 | 0.1% | 0.07 | 0.16% | 0.16 | 0.23% | 0.25 | 0.31% | 0.33 | solubility in methanol and ethanol [1]: high solubility; solubility in other common / remaining organic solvents [1]: appreciable solubility; XRPD form after equilibration ([3]; 0.1 N HCl): hydrochloride salt; XRPD form after equilibration ([3]; Water, listed as Mesylate): Changed to new; moisture at 85% r.h. [4]: less than 0.35%; Sorption ([4]; Sample RH % 95): 0.82%; Desorption ([4]; Sample RH % 95): 0.82
